What all share (assay type): cell-based
Test [1] deals with HIV-1IIIB. Description: Anti-HIV-1 antiviral assay with HIV-1IIIB in various cell types (RT activity). On the procedure:
(§1) ANTIVIRAL ASSAYS. The anti-HIV-1 activity of the compound A (−) were assessed by employing HIV-1IIIB in a variety of cell types as previously described (Gu et al., 1992, 1994, 1999; Rando et al., 1995; Salomon et al., 1994). Briefly, cells were incubated with virus at a multiplicity of infection (MOI) of 0.005 for T cell assays and an MOI of 0.5 for monocytic cell assays for 3 hrs. Unbound virus was then removed by washing the cells, followed by seeding the cells into a 96-well plate. The infected cells were cultured in the presence of a serial concentrations of the test compound for 5-7 days. The anti-HIV-1 efficacy was determined by testing for HIV-1 RT activity or p24 level in the cell culture supernatants. All assays were performed in duplicate. Zidovudine and/or lamivudine were used as controls in each experiment.
Activity of the compound A (−) against HIV-1 in various cells. Anti-HIV-1 activity of the compound A (−) were tested in different types of cells, including human peripheral […] cells (PBMCs), T-cell (MT-2 and MT-4) and monocytic cell (U937) lines. The compound A (−) had submicromolar EC50s against HIV-1IIIB in different types of cells tested (Table 2).

Test [2] relates to HIV-19881. Description: Anti-HIV-1 assay, non-syncytium inducing strain (p24). The note with it: Human immunodeficiency virus 1, PBMC; HIV-19881, PBMCs, determined by p24. On the procedure:
as §1
(§2) Furthermore, antiretroviral activity of the compound A (−) was also assessed using different types of HIV-1 strains. […]

The test system of test [3] is HIV-1macBAL. Description: Anti-HIV-1 assay, dual tropic strain (p24). The note with it: determined by p24. On the procedure:
as §1, §2

The test system of test [4] is HIV-1WRM8488. Nature of the test: Anti-HIV-1 assay, monocytropic strain (p24). The following applies: Human immunodeficiency virus 1; HIV-1WRM8488, m/m cells, determined by p24. The method, then: as §1, §2
The test system of test [5] is HXB2-D (wt). Nature of the test: Recombinant HIV-1 variants (RT activity). The note with it: Human immunodeficiency virus 1, HXB2. The method, then:
as §1
(§3) Recombinant HIV-1 variants were prepared by introducing the designed mutations into HXB2-D by site-directed mutagenesis as described (Gu et al. 1992, 1994). The virus stocks were prepared by transfecting MT-4 cells with infectious viral DNA constructs. Antiviral activity of the compound A (−) was evaluated as described in example 10.

Test [6] relates to K65R. Description: Recombinant drug resistant HIV-1 variants (RT activity). The note with it: Human immunodeficiency virus 1. The method, then: as §1, §3
Test [7] relates to Zidovudine^R/Lamivudine^R (2) clinical HIV-1 isolates. Description: Clinical HIV-1 isolates (RT activity). The following applies: Human immunodeficiency virus 1, Zidovudine^R/Lamivudine^R (2 isolates). On the procedure:
as §1
(§4) Clinical strains were isolated from PBMCs of HIV-1 infected individuals through co-culture with PBMCs from normal dornors. To determine the RT genotype of the HIV-1 clinical isolates, the proviral DNA was extracted from infected CD4^+ T-cells or PBMCs and the complete RT coding regions were amplified by PCR as previously reported (Gu et al 1992). The PCR product was purified and then directly sequenced using primer RTS (5′-CCAAAAGTTAAACAATGGC-3′) which is located at the 5′ portion of the RT coding region (nucleotide 2603-2621 of HXB2-D coordinates). Antiviral activity was evaluated as described in example 10.

Test [8] deals with Zidovudine^R/Lamivudine^R (3) clinical HIV-1 isolates (second group of Table 7). Description: Clinical HIV-1 isolates (RT activity). The note with it: Human immunodeficiency virus 1, Zidovudine^R/Lamivudine^R (3 isolates). On the procedure: as §1, §4
In test [9] the test system is Zidovudine^S/Lamivudine^S (7) clinical HIV-1 isolates. Nature of the test: Clinical HIV-1 isolates (RT activity). The following applies: Human immunodeficiency virus 1, Zidovudine^S/Lamivudine^S (7 isolates). On the procedure: as §1, §4
Test [10] deals with Zidovudine^R/Lamivudine^R (3) clinical HIV-1 isolates (third group of Table 7). Nature of the test: microbe, parasite or virus in culture. The method, then:
as §1, with “The anti-HIV-1 activity of the compound A (−) were assessed by employing HIV-1IIIB in a variety of cell types as previously described (Gu et al., 1992, 1994, 1999; Rando et al., 1995; Salomon et al., 1994).” left out
Clinical strains were isolated from PBMCs of HIV-1 infected individuals through co-culture with PBMCs from normal dornors.

The mark [11] stands for this setting: Human immunodeficiency virus 1, HIV-1IIIB, MT-2 (4 determinations), RT activity, read-out: EC50.
Setting [12] is: Human immunodeficiency virus 1, HIV-1IIIB, MT-4 (2 determinations), RT activity, read-out: EC50.
Setting [13] is: Human immunodeficiency virus 1, MT2, HIV-1IIIB, MT-2 cells, determined by RT activity, read-out: EC50 (μM) ± S.D. in MT-2 cells.
[14] abbreviates: Human immunodeficiency virus 1, PBMC, HIV-1IIIB, PBMCs (3 determinations), RT activity, read-out: EC50.
Setting [15] is: Human immunodeficiency virus 1, U-937, HIV-1IIIB, U937 (1 determination), RT activity, read-out: EC50.
[16] abbreviates: Human immunodeficiency virus 1, PBMC, PBMCs.
The mark [17] stands for this setting: Human immunodeficiency virus 1, m/m cells.
Where [18] appears, read: second group (r9), read-out: EC50 (μM), mean EC50 values.
Where [19] appears, read: second group (r10), read-out: EC50 (μM), ranges of EC50s of the isolates in the same group.
Where [20] appears, read: read-out: EC50 (μM), mean EC50 values.
The mark [21] stands for this setting: read-out: EC50 (μM), ranges of EC50s of the isolates in the same group.
Setting [22] is: Human immunodeficiency virus 1, read-out: EC50 (μM), mean EC50 values.
[23] abbreviates: Human immunodeficiency virus 1, read-out: EC50 (μM), ranges of EC50s of the isolates in the same group.

Read-outs that look alike come from different tables or passages of the source. Where only a bound is given, the exact number is not on record here.

The EC50 is the concentration giving half of the maximal effect.

On to `Nc1nc(NC2CC2)c2ncn([C@H]3CO[C@@H](CO)O3)c2n1` [Compound A (-), (−)-(2R,4R)-2-hydroxymethyl-4-(2′-amino-6′-cyclopropylamino-purine-9′-yl)-1,3-dioxolane], for which the EC50 was 0.082 µM in test [1] (setting [11]); 0.14 µM in [1] (setting [12]); 0.083 µM in [1] (setting [13]); 0.22 µM in test [1] (setting [14]); 0.82 µM in [1] (setting [15]); 590 nM in [2]. For the same compound, the EC50 in test [3] (setting [16]) is 4140 nM; in [3] (setting [17]) it was 22 nM; in [4], 28 nM; in test [5] it was 530 nM; in test [6], 1030 nM; in test [7], 0.33 µM. The EC50 in test [8] (setting [18]) is 0.38 µM; in test [8] (setting [19]) it was 0.13 to 0.51 µM; in test [9] (setting [20]), 0.15 µM; in test [9] (setting [21]), 0.032 to 0.31 µM; in test [10] (setting [22]), 0.19 µM; in [10] (setting [23]) it was 0.066 to 0.33 µM.
With `Nc1ccn([C@@H]2CS[C@H](CO)O2)c(=O)n1` [Lamivudine, lamivudine], the EC50 in test [1] (setting [11]) is 0.061 µM; in test [1] (setting [12]), 0.17 µM; in test [1] (setting [13]) it was 0.061 ± 0.028 µM; in test [1] (setting [14]) it was 0.035 µM; in [1] (setting [15]), 0.014 µM; in test [5], 350 nM. The EC50 in test [6] is 4310 nM; in [7], 4.1 µM; in [8] (setting [19]) it was at least 5.1 µM; in [9] (setting [20]), 0.23 µM; in [9] (setting [21]), 0.028 to 0.69 µM.
Take `Cc1cn([C@H]2C[C@H](N=[N+]=[N-])[C@@H](CO)O2)c(=O)[nH]c1=O` [Zidovudine, zidovudine]: the concentration giving a half-maximal response (EC50) in test [1] (setting [11]) was 0.0051 µM; in [1] (setting [12]), 0.015 µM; in [1] (setting [13]), 0.0051 ± 0.0025 µM; in [1] (setting [14]), 0.0027 µM; in test [1] (setting [15]), 0.027 µM; in test [2], 1.7 nM. Also, the EC50 is 43 nM in test [3] (setting [16]); under 1.1 nM in test [3] (setting [17]); under 1.1 nM in test [4]; 23 nM in [5]; 1.15 µM in test [7]; 0.012 µM in test [8] (setting [18]). Moreover, the EC50 in test [8] (setting [19]) is 0.0026 to 0.019 µM; in test [9] (setting [20]), 0.021 µM; in test [9] (setting [21]), 0.0034 to 0.051 µM; in test [10] (setting [22]) it was 0.83 µM; in test [10] (setting [23]) it was 0.25 to 1.74 µM.

These data come from US20010049372A1, “Antiviral nucleoside analogues” (BioChem Pharma Inc., priority 1998, published 2001).
